Structures are written as SMILES. Where two headings read alike, the source gives them in different places.

For this experiment, the system named is human umbilical vein endothelial cells (HUVEC). In words: HUVEC proliferation assay. The settings on record: for inhibition at 0.05 µM / inhibition at 0.15 µM / inhibition at 0.01 µM / inhibition at 0.001 µM: Homo sapiens, HUVEC; for inhibition at 0.05 µM: 50 nM; for inhibition at 0.15 µM / % inhibition @ 150 nM: Table I screening results, 150 nM; for inhibition at 0.01 µM: 10 nM; for inhibition at 0.001 µM: 1 nM. It is filed as cell-based. As for the experimental part:
HUVEC Proliferation Assay
This assay determines the ability of a test compound to inhibit the growth factor-stimulated proliferation of human umbilical vein endothelial cells (“HUVEC”). HUVEC cells (passage 3-4, Clonetics, Corp.) were thawed into EGM2 culture medium (Clonetics Corp) in T75 flasks. Fresh EGM2 medium was added to the flasks 24 hours later. Four or five days later, cells were exposed to another culture medium (F12K medium supplemented with 10% fetal bovine serum (FBS), 60 μg/ml endothelial cell growth supplement (ECGS), and 0.1 mg/ml heparin). Exponentially-growing HUVEC cells were used in experiments thereafter. Ten to twelve thousand HUVEC cells were plated in 96-well dishes in 100 μl of rich, culture medium (described above). The cells were allowed to attach for 24 hours in this medium. The medium was then removed by aspiration and 105 μl of starvation media (F12K+1% FBS) was added to each well. After 24 hours, 15 μl of test agent dissolved in 1% DMSO in starvation medium or this vehicle alone was added into each treatment well; the final DMSO concentration was 0.1%. One hour later, 30 μl of VEGF (30 ng/ml) in starvation media was added to all wells except those containing untreated controls; the final VEGF concentration was 6 ng/ml. Cellular proliferation was quantified 72 hours later by MTT dye reduction, at which time cells were exposed for 4 hours MTT (Promega Corp.). Dye reduction was stopped by addition of a stop solution (Promega Corp.) and absorbance at 595 λ was determined on a 96-well spectrophotometer plate reader.
IC50 values were calculated by curve-fitting the response of A^595 to various concentrations of the test agent; typically, seven concentrations separated by 0.5 log were employed, with triplicate wells at each concentration. For screening compound library plates, one or two concentrations (one well per concentration) were employed, and the % inhibition was calculated by the following formula:
% inhibition=(control−test) divided by (control−starvation) […]
control=A^595 when VEGF is present without test agent test=A^595 when VEGF is present with test agent starvation=A^595 when VEGF and test agent are both absent.

[1] abbreviates: Inhibition of HUVEC Proliferation, crude combinatorial urea library, read-out: Inhibition @ 50 nM.
[2] abbreviates: Inhibition of HUVEC Proliferation, crude combinatorial urea library, read-out: % inhibition @ 50 nM.
[3] abbreviates: crude combinatorial amide library.
Where [4] appears, read: crude combinatorial urea library, read-out: Inhibition of HUVEC Proliferation % inhibition @ 10 nM.
The mark [5] stands for this setting: crude combinatorial urea library, read-out: Inhibition of HUVEC Proliferation % inhibition @ 50 nM.
Setting [6] is: table following Table II (untitled), crude combinatorial library.
The mark [7] stands for this setting: table following Table II (untitled), crude combinatorial library, read-out: % inhibition @ 10 nM.
The mark [8] stands for this setting: Table II screening results, crude combinatorial amide library.
Setting [9] is: Table II screening results, crude combinatorial amide library, read-out: % inhibition @ 10 nM.

Consider `COc1cccc(C(=O)Nc2cc(-c3noc(-c4sc(NC(=O)NCc5ccc(S(N)(=O)=O)cc5)nc4N)n3)c(F)cc2F)c1`, for which the inhibition at 0.05 µM under setting [1] was 82%. Consider `COc1cccc(C(=O)Nc2cc(-c3csc(-c4sc(NC(=O)NCC(N)=O)nc4N)n3)c(F)cc2F)c1`, for which, under setting [2], the inhibition at 0.05 µM worked out at 48%. Regarding `COc1cc(Nc2nc(N)c(-c3nc(-c4cccc(NC(=O)c5ccc6ccccc6n5)c4)cs3)s2)cc(OC)c1OC`, the inhibition at 0.15 µM under setting [3] was -11%.

As to `COC(=O)c1ccc(C(=O)Nc2cccc(-c3csc(-c4sc(Nc5cc(OC)c(OC)c(OC)c5)nc4N)n3)c2)nc1`, the inhibition at 0.15 µM under setting [3] turned out to be 20%.

As for `COc1cccc(C(=O)Nc2cccc(-c3csc(-c4sc(NC(=O)NCCN5CCNCC5)nc4N)n3)c2)c1`, the inhibition at 0.01 µM under setting [4] was 4%. Besides, under setting [5], the inhibition at 0.05 µM came out at 39%. For the compound `CCC(O)CNC(=O)Nc1nc(N)c(-c2nc(-c3cc(NC(=O)c4cccc(OC)c4)c(F)cc3F)cs2)s1` (stereo not shown), the inhibition at 0.05 µM under setting [2] amounted to 104%.

Regarding `COc1cc(Nc2nc(N)c(-c3nc(-c4cc(NC(=O)c5ccccc5)ccc4C)no3)s2)cc(OC)c1OC`, the inhibition at 0.001 µM under setting [6] was 25%. The inhibition at 0.01 µM under setting [7] is 111%. Take `COc1cccc(C(=O)Nc2cccc(-c3csc(-c4sc(NC(=O)NCCNC(C)=O)nc4N)n3)c2)c1`: the inhibition at 0.01 µM under setting [4] is 20%. Moreover, the inhibition at 0.05 µM under setting [5] came out at 77%. On to `COc1cccc(C(=O)Nc2cc(-c3csc(-c4sc(NC(=O)NCCCN5CCOCC5)nc4N)n3)c(F)cc2F)c1`, for which the inhibition at 0.05 µM under setting [2] stood at 81%. On to `COc1cc(Nc2nc(N)c(-c3nc(-c4cccc(NC(=O)/C=C/c5ccccn5)c4)cs3)s2)cc(OC)c1OC`, for which, under setting [3], the inhibition at 0.15 µM is -7%.

For `COc1cc(Nc2nc(N)c(-c3nc(-c4cccc(NC(=O)c5ccoc5)c4)cs3)s2)cc(OC)c1OC`, under setting [3], the inhibition at 0.15 µM is 7%. Consider `COc1cccc(C(=O)Nc2cccc(-c3csc(-c4sc(NC(=O)NCCN5CCOCC5)nc4N)n3)c2)c1`, for which the inhibition at 0.01 µM under setting [4] turned out to be 1%. Further, under setting [5], the inhibition at 0.05 µM is 121%.

Take `COc1cccc(C(=O)Nc2cc(-c3noc(-c4sc(NC(=O)NCC(=O)NO)nc4N)n3)c(F)cc2F)c1`: under setting [1], the inhibition at 0.05 µM is -12%. For the compound `CNC(=O)Nc1nc(N)c(-c2nc(-c3cccc(NC(=O)c4cccc(OC)c4)c3)cs2)s1` [drawing 606], the inhibition at 0.01 µM under setting [4] was 15%. The inhibition at 0.05 µM under setting [5] was 115%. Regarding `COc1cccc(C(=O)Nc2cc(-c3csc(-c4sc(NC(=O)NCC(C)O)nc4N)n3)c(F)cc2F)c1` (stereo not shown), under setting [2], the inhibition at 0.05 µM stood at 111%.

Turning to `CCCCN(CC)CCNC(=O)Nc1nc(N)c(-c2nc(-c3cc(NC(=O)c4cccc(OC)c4)c(F)cc3F)no2)s1`, the inhibition at 0.05 µM under setting [1] was found to be 42%.

Turning to `COc1cccc(C(=O)Nc2cccc(-c3csc(-c4sc(NC(=O)NCCCCCCN(C)C)nc4N)n3)c2)c1`, the inhibition at 0.01 µM under setting [4] was 32%. The inhibition at 0.05 µM under setting [5] turned out to be 24%. Consider `CNC(=O)Nc1nc(N)c(-c2nc(-c3cccc(NC(=O)CCCN(C)C)c3)cs2)s1`, for which, under setting [8], the inhibition at 0.001 µM was -12%. Further, the inhibition at 0.01 µM under setting [9] was -40%. Consider `COc1cccc(C(=O)Nc2cc(-c3noc(-c4sc(NC(=O)NCC(C)N(C)C)nc4N)n3)c(F)cc2F)c1` (stereo not shown), for which the inhibition at 0.05 µM under setting [1] is -25%. `COCC(C)NC(=O)Nc1nc(N)c(-c2nc(-c3cccc(NC(=O)c4cccc(OC)c4)c3)cs2)s1` (stereo not shown): under setting [4], the inhibition at 0.01 µM came out at 8%. Also, the inhibition at 0.05 µM under setting [5] worked out at 42%.

Consider `COc1ccc(C#N)c(C(=O)Nc2ccc(C)c(-c3noc(-c4sc(Nc5cc(OC)c(OC)c(OC)c5)nc4N)n3)c2)c1`, for which the inhibition at 0.001 µM under setting [6] stood at 9%. Under setting [7], the inhibition at 0.01 µM came out at 1%. Take `COc1cccc(C(=O)Nc2cc(-c3csc(-c4sc(NC(=O)NCCNC(C)=O)nc4N)n3)c(F)cc2F)c1`: under setting [2], the inhibition at 0.05 µM stood at 105%. As to `COc1cc(Nc2nc(N)c(-c3nc(-c4cccc(NC(=O)/C=C/c5ccoc5)c4)cs3)s2)cc(OC)c1OC`, the “% inhibition @ 150 nM” value under setting [3] is 0%. On to `CCN(CC)CCCC(C)NC(=O)Nc1nc(N)c(-c2nc(-c3cc(NC(=O)c4cccc(OC)c4)c(F)cc3F)no2)s1` (stereo not shown), for which, under setting [1], the inhibition at 0.05 µM is 7%. `COc1cccc(C(=O)Nc2cccc(-c3csc(-c4sc(NC(=O)NCCc5ccccn5)nc4N)n3)c2)c1`: the inhibition at 0.01 µM under setting [4] was -2%. Under setting [5], the inhibition at 0.05 µM is 128%.

As to `COc1cccc(C(=O)Nc2cc(-c3csc(-c4sc(NC(=O)NCCN(C(C)C)C(C)C)nc4N)n3)c(F)cc2F)c1`, the inhibition at 0.05 µM under setting [2] was 82%. Consider `COc1cccc(C(=O)Nc2cccc(-c3csc(-c4sc(NC(=O)NCCN5CCCC5)nc4N)n3)c2)c1`, for which the inhibition at 0.01 µM under setting [4] is 7%. The inhibition at 0.05 µM under setting [5] came to 17%. For the compound `COc1cc(Nc2nc(N)c(-c3nc(-c4cc(NC(=O)/C=C/C(=O)NCC5CC5)ccc4C)no3)s2)cc(OC)c1OC`, the inhibition at 0.001 µM under setting [6] came out at 39%. Also, the inhibition at 0.01 µM under setting [7] was 5%. Turning to `COc1cc(Nc2nc(N)c(-c3nc(-c4cccc(NC(=O)/C=C/c5cccc(Cl)c5)c4)cs3)s2)cc(OC)c1OC`, under setting [3], the “% inhibition @ 150 nM” value was 0%.

Consider `CNC(=O)Nc1nc(N)c(-c2nc(-c3cccc(NC(=O)C(O)c4ccccc4)c3)cs2)s1` (stereo not shown), for which the inhibition at 0.001 µM under setting [8] is -14%. The inhibition at 0.01 µM under setting [9] was -11%. For the compound `COc1cc(Nc2nc(N)c(-c3nc(-c4cccc(NC(=O)c5ccccc5CCc5ccccc5)c4)cs3)s2)cc(OC)c1OC`, the inhibition at 0.15 µM under setting [3] is -14%.

As to `CCC(O)CNC(=O)Nc1nc(N)c(-c2nc(-c3cccc(NC(=O)c4cccc(OC)c4)c3)cs2)s1` (stereo not shown), the inhibition at 0.01 µM under setting [4] came out at 30%. In addition, the inhibition at 0.05 µM under setting [5] was determined as 135%. Regarding `COc1cc(Nc2nc(N)c(-c3nc(-c4cccc(NC(=O)c5ccc6c(c5)C(=O)N(C)C6=O)c4)cs3)s2)cc(OC)c1OC`, under setting [3], the inhibition at 0.15 µM is -3%. In the case of `COc1cc(Nc2nc(N)c(-c3nc(-c4cc(NC(=O)/C=C(\C)c5ccccc5C)ccc4C)no3)s2)cc(OC)c1OC`, under setting [6], the inhibition at 0.001 µM was -27%. Also, the inhibition at 0.01 µM under setting [7] is 8%. In the case of `COc1cccc(C(=O)Nc2cccc(-c3csc(-c4sc(NC(=O)NCCc5c[nH]cn5)nc4N)n3)c2)c1`, the inhibition at 0.01 µM under setting [4] stood at 1%. The inhibition at 0.05 µM under setting [5] is -43%. In the case of `COc1cccc(C(=O)Nc2cc(-c3noc(-c4sc(NC(=O)NCCCN(CCO)CCO)nc4N)n3)c(F)cc2F)c1`, the inhibition at 0.05 µM under setting [1] amounted to 84%.

For `COc1cc(Nc2nc(N)c(-c3nc(-c4cc(NC(=O)C5=C[C@@H](O)[C@@H](O)[C@H](O)C5)ccc4C)no3)s2)cc(OC)c1OC`, the inhibition at 0.001 µM under setting [6] was determined as 4%. Moreover, the inhibition at 0.01 µM under setting [7] came to 6%.

As to `COc1cccc(C(=O)Nc2cc(-c3csc(-c4sc(NC(=O)NCCN5CCNC5=O)nc4N)n3)c(F)cc2F)c1`, the inhibition at 0.05 µM under setting [2] was determined as 78%. Turning to `COc1ccc(/C=C/C(=O)Nc2cccc(-c3csc(-c4sc(Nc5cc(OC)c(OC)c(OC)c5)nc4N)n3)c2)cc1OC`, the “% inhibition @ 150 nM” value under setting [3] worked out at 0%. With `COc1cccc(C(=O)Nc2cc(-c3csc(-c4sc(NC(=O)NCCNc5ccccc5)nc4N)n3)c(F)cc2F)c1`, under setting [2], the inhibition at 0.05 µM was 60%. In the case of `COc1cc(Nc2nc(N)c(-c3nc(-c4cccc(NC(=O)CCc5ccccc5Cl)c4)cs3)s2)cc(OC)c1OC`, the “% inhibition @ 150 nM” value under setting [3] is given as 0%. On to `COc1cccc(C(=O)Nc2cccc(-c3csc(-c4sc(NCCC(=O)NCC(=O)O)nc4N)n3)c2)c1`, for which, under setting [4], the inhibition at 0.01 µM was -34%. Under setting [5], the inhibition at 0.05 µM came out at 7%. Regarding `COc1cccc(C(=O)Nc2cc(-c3noc(-c4sc(NC(=O)N[C@@H](CO)C(N)=O)nc4N)n3)c(F)cc2F)c1`, the inhibition at 0.05 µM under setting [1] is 59%. On to `COc1cc(Nc2nc(N)c(-c3nc(-c4cc(NC(=O)C5(c6ccc(C)cc6)CC5)ccc4C)no3)s2)cc(OC)c1OC`, for which the inhibition at 0.001 µM under setting [6] worked out at 10%. In addition, the inhibition at 0.01 µM under setting [7] was -8%. In the case of `COc1cccc(C(=O)Nc2cc(-c3csc(-c4sc(NC(=O)NC(C)CO)nc4N)n3)c(F)cc2F)c1` (stereo not shown), the inhibition at 0.05 µM under setting [2] worked out at 98%. Consider `COc1cccc(C(=O)Nc2cccc(-c3csc(-c4sc(NC(=O)NCCC(=O)O)nc4N)n3)c2)c1`, for which the inhibition at 0.01 µM under setting [4] was -1%. Further, under setting [5], the inhibition at 0.05 µM came to 8%. For `COc1cc(Nc2nc(N)c(-c3nc(-c4cccc(NC(=O)CCc5ccccc5)c4)cs3)s2)cc(OC)c1OC` [drawing 884], under setting [3], the inhibition at 0.15 µM was 4%.
